Literature values in PubChem BioAssay AID1259409 (Chemical Carcinogenesis Research Information System (CCRIS), 2018).

Test system: rodent chemically induced tumor inhibition, incidence and multiplicity
Assay: CCRIS tumor inhibitor studies
Conditions: Carcinogen: L-AZASERINE, 115-02-6, Dose [Inhibitor]: 1 MMOL/KG DIET DAILY FOR 91 D FOLLOWED BY 0.5 MMOL/KG DIET DAILY FOR 246 D DURING A 358 D PERIOD STARTING 1 WK AFTER COM, Route [Inhibitor]: ORAL, Species: RAT, Promoter: NONE USED

CC1=C(/C=C/C(C)=C/C=C/C(C)=C/C(=O)Nc2ccc(C(=O)O)cc2)C(C)(C)CCC1
tumour outcome (control, treated, inhibition, significance) (Strain/Sex: WISTAR-LEWIS/FEMALE, Target Tissue: Type of Lesion: PANCREAS: ADENOMA, Dose [Carcinogen]: 10 MG/KG BW 1/WK FOR 15 WK): 35%, 38%, -9%, not significant | tumour outcome (control, treated, inhibition, significance) (Strain/Sex: WISTAR-LEWIS/FEMALE, Target Tissue: Type of Lesion: PANCREAS: CARCINOMA IN SITU, Dose [Carcinogen]: 10 MG/KG BW 1/WK FOR 15 WK): 48%, 8%, 83%, not significant | tumour outcome (control, treated, inhibition, significance) (Strain/Sex: WISTAR-LEWIS/FEMALE, Target Tissue: Type of Lesion: PANCREAS: CARCINOMA, Dose [Carcinogen]: 10 MG/KG BW 1/WK FOR 15 WK): 4%, 0%, 100%, not significant | tumour outcome (control, treated, inhibition, significance) (Strain/Sex: WISTAR-LEWIS/FEMALE, Target Tissue: Type of Lesion: PANCREAS: NEOPLASM, Dose [Carcinogen]: 10 MG/KG BW 1/WK FOR 15 WK STARTING 15 WK): 87%, 46%, 47%, p<0.05 | tumour outcome (control, treated, inhibition, significance) (Strain/Sex: WISTAR-LEWIS/MALE, Target Tissue: Type of Lesion: PANCREAS: ADENOMA, Dose [Carcinogen]: 10 MG/KG BW 1/WK FOR 15 WK): 29%, 16%, 45%, not significant | tumour outcome (control, treated, inhibition, significance) (Strain/Sex: WISTAR-LEWIS/MALE, Target Tissue: Type of Lesion: PANCREAS: CARCINOMA IN SITU, Dose [Carcinogen]: 10 MG/KG BW 1/WK FOR 15 WK): 58%, 64%, -10%, not significant | tumour outcome (control, treated, inhibition, significance) (Strain/Sex: WISTAR-LEWIS/MALE, Target Tissue: Type of Lesion: PANCREAS: CARCINOMA, Dose [Carcinogen]: 10 MG/KG BW 1/WK FOR 15 WK): 8%, 16%, -100%, not significant | tumour outcome (control, treated, inhibition, significance) (Strain/Sex: WISTAR-LEWIS/MALE, Target Tissue: Type of Lesion: PANCREAS: NEOPLASM, Dose [Carcinogen]: 10 MG/KG BW 1/WK FOR 15 WK): 95%, 96%, -1%, not significant
